{
  "source": "patent US9434701B2",
  "about": "“Aminoquinoxaline derivatives for treatment of neurodegenerative diseases” (CENTRE NATIONAL DE LA RECHERCHE SCIENTIFIQUE (CNRS), priority 2011, dated 2016)",
  "key": {"[1]": {"experiment": "toxicity: animal weight monitoring during per os treatment", "type": "in vivo", "experimental": "Three groups were created: • mice who received the carrier orally at 10 mL/kg (Group V, n=4), • mice treated with compound 4bc orally at 150 mg/kg and at 10 mL/kg (Group T, n=6), • control mice who received no treatment (n=2). All the mice were treated or received the carrier twice daily for 4 days. On the 5th day, a last treatment was administered and the animals were euthanized between […]. after this last treatment according to the following plan:\nThe animals were weighed every day throughout the sub-chronic study in order to monitor their general condition. Animal weights were considered a good indicator of general health since a compound's toxicity is known to be characterized by loss of bodyweight over time."}, "[2]": {"experiment": "passage of the blood-brain barrier, IP study: brain extract concentration by HPLC-MS/MS", "type": "in vivo, Rj Orl: SWISS mice", "conditions": "for concentration at 2 h: male, Rj Orl: SWISS, mouse, brain extract, ip, 70 mg/kg, IP 70 mg/kg, ± SEM", "experimental": "Male Rj Orl: SWISS, mice, approximately 5 weeks old and weighing between 20 and 24 g at arrival (R Janvier Breeding Center, France) were kept in the animal room at constant temperature (22±1° C.) and controlled humidity (55±20%), with a 12-hour light/dark cycle (8:00 a.m.-8:00 p.m.). During the acclimation and study period, the mice had free access to food and water. All the experiments were conducted in compliance with the conditions of decree 2001-464 of May 29, 2001 relative to animal experimentation.\nTwo treatment modes were used: intraperitoneal (IP) administration for 1 or 2 days or oral or per os administration for 5 days.\nThe solution of compound 4bc to be injected at a concentration of 7.0 g/L was prepared in a carrier containing 10% Tween 20+20% DMSO+70% 0.9% NaCl in water.\nThree animal groups were created: • mice who received the carrier by IP at 10 mL/kg (Group V, n=2), • mice treated with compound 4bc by IP at 70 mg/kg and at 10 mL/kg (Group T, n=6), • one untreated mouse that was used as a […] control during analysis.\nTreated mice T2 and T3 received treatments as follows:\nTreated mice T1, T4, T5 and T6 as well as the mice receiving the carrier V1 and V2 received the treatments/carriers as follows:\nThe mice were anesthetized by an injection of 0.1 mL of a 6% sodium pentobarbital solution and then the mice were infused to eliminate the compound present in the plasma with a 0.9% NaCl solution containing heparin (200 μL of heparin choay to 5000 IU/mL in one liter of 0.9% NaCl). Each animal was infused with a minimum of 50 mL of this solution. The mouse was then decerebrated and the cerebellum, brainstem and olfactory bulbs were removed by dissection.\nFor the IP study, the brain was dissected into two parts (right and left hemisphere).\nEach mouse brain sample treated with compound 4bc was weighed, placed in MeOH (100 μl MeOH per 10 mg of brain tissue) and then mixed by sonication. The suspensions thus obtained were centrifuged at 14,000 g for 7 minutes at 4° C. for IP or at 27,000 g for 10 minutes, at 4° C. for oral administration. The supernatants, diluted by half in MeOH, were transferred into HPLC vials for analysis of the presence of compound 4bc by HPLC-MS/MS.\nDetection and quantification, based on peak area, were done by HPLC-MS/MS in MRM mode.\nThe HPLC system was composed of a Dionex Ultimate 3000 pump equipped with a Dionex WPS-3000PL automatic sample injector. The mass spectrometer used is a Water-Micromass Quattro Ultima equipped with an electrospray ionization source and a triple quadrupole analyzer. Data was acquired and analyzed by Masslynx 3.5.\nLiquid chromatography was performed in isocratic mode with a Nucleodur™ (Macherey-Nagel) C18, 125×2.1 mm column with a particle size of 5.0 μm. The mobile phase was composed of a mixture of two phases A and B, in a proportion of 30/70. Phase A was composed of 1% acetic acid in water (v/v). Phase B was composed of 1% acetic acid in MeOH (v/v). The flow rate was set at 0.2 mL/min; the injection volume was 5 μl.\nThe mass spectrometer was connected to the HPLC system by using an electrospray ionization source. A switching valve was programmed before injection of the sample for rinsing and equilibration of the capillary, so as to prevent any accumulation of salt in the source capillary. The capillary voltage was set at 4000 V and the cone voltage at 80 V; the source temperature was set at 120° C.; the desolvation gas (N2) was set at a flow rate of 529 and the temperature at 350° C. The mass spectra were obtained in positive mode. The parameters were optimized to obtain the maximum molecular ion ([M+H]^+) at m/z 236.41, corresponding to compound 4bc. Collision was done by argon and the energy was set at 30 eV in MS/MS mode for detecting mass transitions: m/z 236.41→117.08; 236.41→131.10 and 236.41→158.27."}, "[3]": {"test_system": "dopaminergic neurons (TH+) of rat embryo ventral midbrain culture", "experiment": "neuritogenic activity: neurite outgrowth per cell / differentiation of TH+ neurons", "type": "cell-based", "experimental": "Quinoxaline derivatives were tested on a dopaminergic neuron spontaneous degeneration model in culture according to the protocol described in the article by F. Schmidt et al. […] This model consists of culturing rat embryo ventral midbrain. This part of the brain in culture contains a proportion of dopaminergic neurons of 5% of the total neurons; the other neurons are mainly GABAergic. These cultures are also composed of glial cells, i.e., astrocytes, oligodendrocytes and microglia. These cultures are characterized by progressive neuron death. […] To assess the neuritogenic activity of compounds according to the invention, neurite outgrowth per cell was quantified using the Neurite Outgrowth software developed by Xplora Nova. At least 60 neurons per condition were photographed and studied."}, "[4]": {"experiment": "influence of time before euthanasia, IP route: brain extract and plasma concentration", "type": "in vivo, C57BL\\6J mice", "conditions": "IP 70 mg/kg", "experimental": "This study was done on C57BL\\6J (instead of RjOrl:SWISS) mice treated with compound 4bc by IP or per os.\nIP Route • Mice treated by IP route received a treatment of 70 mg/kg to […] of a solution of compound 4bc over 2 days comprising 2 IP injections the first day and 1 IP injection the second day."}},
  "note": "“Also recorded” adds a separate entry of the source. Like-named read-outs stand apart in the source and are kept apart here.",
  "data": [
    {"smiles": "Cc1nc2ccc(N)cc2nc1-c1ccccc1", "note": "[Compound 4bc]", "values": [
      {"measurement": "adverse reactions", "setting": "[1]; oral, 300 mg/kg/day over a 5-day treatment", "result": "without adverse reactions"},
      {"measurement": "toxicity from animal weight gain", "setting": "[1]; per os, 300 mg/kg/day, 5 days", "result": "absence of significant toxicity"},
      {"measurement": "brain extracts at 4-6 h less concentrated than at 2 h post-treatment", "setting": "[2]; IP", "result": 2000, "unit": "times"},
      {"measurement": "elimination from the brain over time", "setting": "[2]; IP", "result": "eliminated quickly from the brain"},
      {"measurement": "mean value of extracts analyzed later lower than previously calculated (ratio of the means)", "setting": "[2]; IP, 2 h brain extracts, stored at 4° C.", "result": "approximately 6 times"},
      {"measurement": "detection in old brain extracts", "setting": "[2]; IP, euthanized between 4 and 6 h after the last treatment, extracts stored 40 days at 4° C., n=8", "result": "detectable"},
      {"measurement": "crossing of the blood brain barrier in vivo", "setting": "[2]; intraperitoneal administration", "result": "able to cross the blood brain barrier"},
      {"measurement": "concentration at 2 h", "setting": "[2]; euthanized 2 h after last treatment, extracts stored 40 days at 4° C., n=4, read-out: mean concentration in old brain extracts", "result": 1390, "unit": "ng/mL"},
      {"measurement": "concentration at 2 h", "setting": "[2]; euthanized 2 h after the last treatment, n=3, read-out: mean concentration in brain extract", "result": 8830, "unit": "ng/mL"},
      {"measurement": "TH+ neuron differentiation / neuritogenic effect (in words, FIG. 1)", "setting": "[3]; 100 nM, versus negative control", "result": "significant increase; also recorded: longer and more numerous neurite extensions"},
      {"measurement": "activity at 0.1 µM", "setting": "[3]; Rattus norvegicus, Neuron, compound at 100 nM, read-out: Diff in % of control ± SEM", "result": 142, "unit": "%"},
      {"measurement": "concentration at 1 h", "setting": "[4]; C57BL\\6J, mouse, brain extract, 3 injections over 2 days, euthanasia approximately 1 h after last treatment", "result": 1000, "unit": "ng/mL"},
      {"measurement": "Brain extract concentration", "setting": "[4]; 3 injections over 2 days, euthanasia approximately 1 h after last treatment", "result": 1, "unit": "µg/mL"},
      {"measurement": "Plasma concentration", "setting": "[4]; approximately 1 h", "result": 1200, "unit": "ng/mL"},
      {"measurement": "Brain extract concentration", "setting": "[4]; approximately 1 h 30 min", "result": 0.74, "unit": "µg/mL"},
      {"measurement": "Plasma concentration", "setting": "[4]; approximately 1 h 30 min", "result": 3100, "unit": "ng/mL"},
      {"measurement": "Brain extract concentration", "setting": "[4]; approximately 1 h 55 min", "result": 0.1, "unit": "µg/mL"},
      {"measurement": "Plasma concentration", "setting": "[4]; approximately 1 h 55 min", "result": 1700, "unit": "ng/mL"},
      {"measurement": "Brain extract concentration", "setting": "[4]; approximately 2 h 20 min", "result": 0.09, "unit": "µg/mL"}
    ]}
  ]
}
